The NIST ThermoML archive (doi:10.1016/j.tca.2012.03.027)
± gives the expanded uncertainty stated by the source.

Details: Crystal 2; DTA

For `CC12CCC(CC1=O)C2(C)C` (configuration not stated) [1,7,7-trimethylbicyclo[2.2.1]-2-heptanone], which Triple point temperature is on record?
The Triple point temperature was 362 ± 4 K.

With `CC1(C)[C@@H]2CC[C@@]1(C)C(=O)C2` [d-camphor] as the compound, how does the Triple point temperature read?
The Triple point temperature was 367 ± 3 K.
